Assay results published in PMC10315472 (Frontiers in Microbiology, 2023).
Where two headings read alike, the source gives them in different places. Positions of bridges follow the written chain, without caps; N, C: chain ends. Residues, ends and D or L forms follow the SMILES beside them.

Assays:
WT RBD [1] = target: T1, WT RBD (Severe acute respiratory syndrome coronavirus 2, UniProt P0DTC2); test: biochemical; assay type: binding, SARS-CoV-2
[2] = covalently immobilized onto CM5 via amine groups
WT RBD [3] = target: T1, WT RBD; test: biochemical; assay type: binding, SARS-CoV-2; remark: listed apart in the source

SMILES | Kd (WT RBD [1]) [nM] | stability on CM5 chip [2] | Kd (WT RBD [3]) [nM] | koff (WT RBD [3]) [s⁻¹] | kon (WT RBD [3]) [M⁻¹ s⁻¹]
CC[C@H](C)[C@@H]1NC(=O)[C@H](CCCCN)NC(=O)CNC(=O)[C@H](CCCNC(=N)N)NC(=O)[C@@H]2CSSC[C@H](N)C(=O)N3CCC[C@H]3C(=O)N[C@@H](Cc3c[nH]c4ccccc34)C(=O)N[C@@H](CC(N)=O)C(=O)N[C@@H](C)C(=O)N[C@@H](Cc3ccc(O)cc3)C(=O)N[C@@H](CCC(=O)O)C(=O)N[C@H]3CSSC[C@H](NC(=O)[C@H]([C@@H](C)O)NC(=O)[C@H](CCC(N)=O)NC(=O)[C@H](CCCNC(=N)N)NC1=O)C(=O)N[C@@H](Cc1c[nH]cn1)C(=O)N[C@H](C(=O)N[C@@H](Cc1ccc(O)cc1)C(=O)O)CSSC[C@H](NC(=O)[C@H](Cc1c[nH]cn1)NC(=O)[C@H](CCCNC(=N)N)NC(=O)[C@H](CC(=O)O)NC3=O)C(=O)N[C@@H](C(C)C)C(=O)N[C@@H](CO)C(=O)N[C@@H](CCCCN)C(=O)NCC(=O)N[C@@H](Cc1ccc(O)cc1)C(=O)N[C@@H]([C@@H](C)O)C(=O)NCC(=O)NCC(=O)N[C@@H](CC(N)=O)C(=O)N2 [(ΔGFG)AMSIN] (H-CPWNAYECDRHCVSKGYTGGNCRGKIRQTCHCY-OH; disulfide 1-22, 8-30, 12-32) | 119 | – | – | – | –
CC[C@H](C)[C@@H]1NC(=O)[C@H](CCCCN)NC(=O)CNC(=O)[C@H](CCCNC(=N)N)NC(=O)[C@@H]2CSSC[C@H](NC(=O)CNC(=O)[C@H](Cc3ccccc3)NC(=O)CN)C(=O)N3CCC[C@H]3C(=O)N[C@@H](Cc3c[nH]c4ccccc34)C(=O)N[C@@H](CC(N)=O)C(=O)N[C@@H](C)C(=O)N[C@@H](Cc3ccc(O)cc3)C(=O)N[C@@H](CCC(=O)O)C(=O)N[C@H]3CSSC[C@H](NC(=O)[C@H]([C@@H](C)O)NC(=O)[C@H](CCC(N)=O)NC(=O)[C@H](CCCNC(=N)N)NC1=O)C(=O)N[C@@H](Cc1c[nH]cn1)C(=O)N[C@H](C(=O)N[C@@H](Cc1ccc(O)cc1)C(=O)O)CSSC[C@H](NC(=O)[C@H](Cc1c[nH]cn1)NC(=O)[C@H](CCCNC(=N)N)NC(=O)[C@H](CC(=O)O)NC3=O)C(=O)N[C@@H](C(C)C)C(=O)N[C@@H](CO)C(=O)N[C@@H](CCCCN)C(=O)NCC(=O)N[C@@H](Cc1ccc(O)cc1)C(=O)N[C@@H]([C@@H](C)O)C(=O)NCC(=O)NCC(=O)N[C@@H](CC(N)=O)C(=O)N2 [AMSIN] (H-GFGCPWNAYECDRHCVSKGYTGGNCRGKIRQTCHCY-OH; disulfide 4-25, 11-33, 15-35) | – | rather stable | 193 | 0.00219 | 11300
CC[C@H](C)[C@@H]1NC(=O)CNC(=O)[C@H](CCCCN)NC(=O)[C@@H]2CSSC[C@@H](C(=O)N[C@@H](Cc3ccc(O)cc3)C(=O)O)NC(=O)[C@H](CCCCN)NC(=O)[C@@H]3CSSC[C@H](NC(=O)[C@H](CCCNC(=N)N)NC(=O)[C@H](CO)NC(=O)[C@H](CC(=O)O)NC(=O)[C@H](CC(N)=O)NC(=O)CNC(=O)CNC(=O)[C@H](Cc4ccccc4)NC(=O)[C@H]([C@@H](C)CC)NC(=O)[C@H]([C@@H](C)O)NC(=O)[C@@H](NC(=O)CNC(=O)[C@H](Cc4c[nH]c5ccccc45)NC(=O)CN)CSSC[C@H](NC(=O)[C@H](Cc4ccc(O)cc4)NC(=O)CNC(=O)CNC(=O)[C@H](CCCNC(=N)N)NC(=O)[C@H](Cc4ccc(O)cc4)NC(=O)CNC(=O)[C@H](CCCNC(=N)N)NC1=O)C(=O)N[C@@H](CCCCN)C(=O)N[C@@H](CC(C)C)C(=O)NCC(=O)NCC(=O)N[C@@H]([C@@H](C)CC)C(=O)N3)C(=O)N[C@@H](Cc1c[nH]cn1)C(=O)N[C@@H](CCCNC(=N)N)C(=O)N[C@@H](Cc1c[nH]cn1)C(=O)N2 [Emorisin] (H-GWGCTIFGGNDSRCHRHCKGIRGYRGGYCKLGGICKCY-OH; disulfide 4-29, 14-35, 18-37) | – | – | 7.6 | 0.045 | 5.92e+06
